The values that follow come from patent EP0741709B1, “AROMATIC 2-AMINO-IMIDAZOLE DERIVATIVES AS ALPHA-2A ADRENOCEPTOR AGONISTS” (Allergan Sales, Inc., priority 1994, dated 1995).

One assay concerns the target T1, human α2A (Homo sapiens, UniProt P08913).
T1 construct: expressed in transfected cells; host or cells: CHO (CHO-C10)
T1 sequence (P08913 1-465): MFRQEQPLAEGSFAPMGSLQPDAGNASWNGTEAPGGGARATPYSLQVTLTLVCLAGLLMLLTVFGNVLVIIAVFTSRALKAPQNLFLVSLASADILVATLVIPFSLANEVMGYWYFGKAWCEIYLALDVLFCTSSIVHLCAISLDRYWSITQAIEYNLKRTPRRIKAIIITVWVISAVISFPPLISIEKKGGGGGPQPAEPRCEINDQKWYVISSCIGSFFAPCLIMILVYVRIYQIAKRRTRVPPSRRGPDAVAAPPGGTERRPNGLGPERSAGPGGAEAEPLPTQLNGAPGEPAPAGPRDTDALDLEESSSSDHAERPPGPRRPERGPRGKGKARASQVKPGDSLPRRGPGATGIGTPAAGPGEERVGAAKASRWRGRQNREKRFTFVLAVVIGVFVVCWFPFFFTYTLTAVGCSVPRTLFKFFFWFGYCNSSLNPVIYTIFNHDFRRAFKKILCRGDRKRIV
Nature of the assay: Receptor binding assay, [3H]rauwolscine, CHO-C10 cell membranes. As to conditions: 22°C, 30 minutes. The protocol: Cell preparation: […] Cells were harvested by scraping and placed into cold buffer of the following composition: 50 mM Tris-HCl, 5 mM EDTA, pH 7.4). Cells were then homogenized with a Polytron homogenizer for 2 X 10 sec at setting #7, and centrifuged for 20 minutes at 49,000 x g. The pellet fraction was washed (resuspended in Tris-HCl, pH 8 buffer and centrifuged for 15-20 minutes at 49,000 x g) 2 times and stored at -100°C until binding assay. Binding Studies: […] Frozen membrane pellet was resuspended in 25 mM glycine/glycine, pH 7.5 and incubated with radioligand under the following conditions: […] RKC-[^3H]rauwolscine, 0°C, 120 minutes; and, HCC-[^3H]prazosin, 22°C, 30 minutes in a final volume of 500 ul. At the end of the incubation period, the samples were filtered through glass filters (Whatman GF/B) in a 96 well cell harvester and rapidly washed four times with 4 mL of iced-cold 50 mM Tris-HCl buffer. The filters were then oven dried and transferred to scintillation vials containing 10 mL of Beckman's Ready Protein® scintillation cocktail for counting. […] Protein concentrations were determined with a protein assay kit from Bio Rad. Binding isotherms, equilibrium dissociation and affinity constants were analyzed and determined by the non-linear least squares curve fitting programs EBDA (BioSoft) or AccuFit Competition/Saturation by Beckman. Cell preparation: […] Cells were harvested by scraping and placed into cold buffer of the following composition: 50 mM Tris-HCl, 5 mM EDTA, pH 7.4). Cells were then homogenized with a Polytron homogenizer for 2 X 10 sec at setting #7, and centrifuged for 20 minutes at 49,000 x g. The pellet fraction was washed (resuspended in Tris-HCl, pH 8 buffer and centrifuged for 15-20 minutes at 49,000 x g) 2 times and stored at -100°C until binding assay. […] Frozen membrane pellet was resuspended in 25 mM glycine/glycine, pH 7.4 and incubated with radioligand under the following conditions: […] At the end of the incubation period, the samples were filtered through glass fiber filters (Whatman GF/B) in a 96 well cell harvester and rapidly washed four times with 4 mL of iced-cold 50 mM Tris-CHl buffer. The filters were then oven dried and transferred to scintillation vials containing 5 mL of Beckman's Ready Protein® scintillation cocktail for counting. […] Protein concentrations were determined with a protein assay kit from Bio Rad. Binding isotherms, equilibrium dissociation and affinity constants were analyzed and determined by the non-linear least squares curve fitting programs AccuFit Competition/Saturation by Beckman.

A further assay addresses α1 receptors. Nature of the assay: Receptor binding assay, [3H]prazosin, human cerebral cortex (HCC) membranes. As to conditions: 22°C, 30 minutes, read-out: Ki (nM) α1 human brain. On the procedure: Tissue preparation: Membrane suspensions were prepared from human cerebral cortex (HCC, for α1 receptors) obtained from the UCI Organ and Tissue Bank. Briefly, tissues (1g) were homogenized in 25 mL of ice-cold 5 mM tris, pH 7.4 with a Polytron homogenizer for 30 sec at setting #7, and centrifuged for 10-12 minutes at 300 x g a 4°C. The supernatant was filtered through 2 layers of gauze and diluted 1:2 with 50 mM Tris-HCl buffer, pH 7.4, then centrifuged at 49,000 x g for 20 minutes. The pellet fraction was washed 3 times (resuspended in Tris-HCl buffer and centrifuged for 20 minutes at 49,000 x g). The pellet was then stored at -80°C until the binding assay.
Binding Studies: The radioligands [^3H]rauwolscine (specific activity 80 Ci/mmol) and [^3H]prazosin (specific activity 76 Ci/mmol) were obtained from New England Nuclear, Boston, MA. Frozen membrane pellet was resuspended in 25 mM glycine/glycine, pH 7.5 and incubated with radioligand under the following conditions: CHO-C10, CHO-RNG, CHO-C4-[^3H]rauwolscine, 22°C, 30 minutes; RKC-[^3H]rauwolscine, 0°C, 120 minutes; and, HCC-[^3H]prazosin, 22°C, 30 minutes in a final volume of 500 ul. At the end of the incubation period, the samples were filtered through glass filters (Whatman GF/B) in a 96 well cell harvester and rapidly washed four times with 4 mL of iced-cold 50 mM Tris-HCl buffer. The filters were then oven dried and transferred to scintillation vials containing 10 mL of Beckman's Ready Protein® scintillation cocktail for counting. Specific binding defined by 10 uM phentolamine for competition studies were as follows: 2.4 nM [^3H]brimonidine-RbICB 62%; 2.4 nM [^3H]rauwolscine-RbICB 75%; 2 nM [^3H]rauwolscine-RbKc 88%; 0.3 nM [^3H] rauwolscine-CHO-C10 99%; 0.4 nM [^3H]rauwolscine-CHO-RNG 99%, 0.3 nM [^3H]prazosin 87%; and 1 nM [^3H]rauwolscine-CHO-C4 90%. Protein concentrations were determined with a protein assay kit from Bio Rad. Binding isotherms, equilibrium dissociation and affinity constants were analyzed and determined by the non-linear least squares curve fitting programs EBDA (BioSoft) or AccuFit Competition/Saturation by Beckman.
The radioligands [^3H)rauwolscine (specific activity 80 Ci/mmol) and [^3H]prazosin (specific activity 76 Ci/mmol) were obtained from New England Nuclear, Boston, MA. Frozen membrane pellet was resuspended in 25 mM glycine/glycine, pH 7.4 and incubated with radioligand under the following conditions: CHO-C10, CHO-RNG, CHO-C4-[^3H]rauwolscine, 22°C, 30 min.; and, HCC-[^3H]prazosin, 22°C, 30 minutes in a final volume of 500 ul. At the end of the incubation period, the samples were filtered through glass fiber filters (Whatman GF/B) in a 96 well cell harvester and rapidly washed four times with 4 mL of iced-cold 50 mM Tris-CHl buffer. The filters were then oven dried and transferred to scintillation vials containing 5 mL of Beckman's Ready Protein® scintillation cocktail for counting. Specific binding defined by 10 uM phentolamine for competition studies were as follows: 0.3 nM[^3H] rauwolscine-CHO-C10 99%; 0.4 nM [^3H]rauwolscine-CHO-RNG 99%, and 0.3 nM [^3H] prazosin-HCC 87%. Protein concentrations were determined with a protein assay kit from Bio Rad. Binding isotherms, equilibrium dissociation and affinity constants were analyzed and determined by the non-linear least squares curve fitting programs AccuFit Competition/Saturation by Beckman.

In the case of `c1ccc(Nc2ncc[nH]2)cc1`, the Ki was 394 nM on human α2A and 67500 nM on α1 receptors.

Turning to `Clc1ccccc1Nc1ncc[nH]1`, the Ki on human α2A came to 287 nM; at α1 receptors it was 23200 nM.

For the molecule `Brc1ccccc1Nc1ncc[nH]1`, the results for the Ki on human α2A and on α1 receptors were 214 nM and 9980 nM, respectively.

For the molecule `Clc1cccc(Cl)c1Nc1ncc[nH]1`, the Ki is 95 nM at human α2A and 5940 nM on α1 receptors.

For the molecule `Cc1ccccc1Nc1ncc[nH]1`, the Ki on human α2A turned out to be 73 nM; at α1 receptors, 10600 nM.

Consider `Brc1c(Nc2ncc[nH]2)ccc2nccnc12`, for which the Ki at human α2A was found to be 512 nM; at α1 receptors it was 100000 nM.

For `Cc1c(Nc2ncc[nH]2)ccc2nccnc12`, the Ki at human α2A worked out at 31 nM; at α1 receptors, 30600 nM.

`Cc1c(Nc2ncc[nH]2)ccc2c1OCCO2`: the values for the Ki at human α2A and at α1 receptors were 1.7 nM and 2150 nM, respectively.

With `c1cc2c(c(Nc3ncc[nH]3)c1)CCCC2`, the Ki at human α2A stood at 39 nM; at α1 receptors it was 4980 nM.

Consider `Cc1c(Nc2ncc[nH]2)ccc2c1NCCO2`, for which the values for the Ki at human α2A and at α1 receptors were 6.3 nM and 14800 nM, respectively.

On to `COc1ccc(Nc2ncc[nH]2)c(C)c1`, for which the Ki at human α2A is 10 nM; on α1 receptors, 7610 nM.
